Measurements published in US20130085283A1, “GERANYLGERANYLACETONE DERIVATIVES” (Coyote Pharmaceuticals, Inc., priority 2011, published 2013).
Marks after values point to notes of the source that are not given here.

Key:
Neuro2A cells = test: In vitro neuroprotection: Neuro2A cells cultured with GGA derivative with or without GGTI-298, cells that extended neurites counted; type: cell-based, mouse; details: for Activity 1 μM: compound at 1 μM; for Activity 1 μM / Activity 1 nm: cells that extended neurites counted, normalized by the activity of CNS-102 (GGA trans-isomer); for Activity 1 nm: compound at 1 nm (so in the source)
Experimental: Neuro2A cells were cultured with a GGA derivative in the presence or absence of an inhibitor against a G-protein (GGTI-298). After differentiation was induced, cells that extended neurites were counted as an activity of the compound. The activities are shown in arbitrary units and were normalized by the activity of CNS-102 (GGA trans-isomer) in each parallel experiments.

Sprague-Dawley rats = test: Neurodegeneration induced by Kainic acid in rats (hippocampus CA3 neuron damage, seizure behavior scores); type: in vivo, rat; details: oral dosing, Kainic acid injected
Experimental: The compounds and the compositions of this invention are tested in vivo for their ability to alleviate neurodegenerations induced by Kainic acid. See, for example, PCT Pat. App. No. PCT/US2011/050071, supra. A compound or composition of this invention is orally dosed to Sprague-Dawley rats, and Kainic acid is injected. Seizure behaviors are observed and scored (see, e.g., R. J. Racine, Modification of seizure activity by electrical stimulation: II. Motor seizure, Electroencephalogr. Clin. Neurophysiol. 32 (1972) 281-294). Brain tissues of rats are sectioned on histology slides, and neurons in hippocampus tissues are stained by Nissl.
The indicated compounds or vehicle control were orally dosed to Sprague-Dawley rats, and Kainic acid was injected. Seizure behaviors were observed and scored (Ref. R. J. Racine, Modification of seizure activity by electrical stimulation: 11. Motor seizure, Electroencephalogr. Clin. Neurophysiol. 32 (1972) 281-294. Modifications were made for the methods). Brain tissues of rats were sectioned on histology slides, and neurons in hippocampus tissues were stained by Nissl. Neurons damaged by Kainic acid (mean of hippocampus CA3 neurons damaged) and behavior scores (mean of seizure behavior scores) were quantified.

HSP70 [1] = test: Expression of heat shock proteins in vitro (Western blotting of Neuro2A lysates); type: cell-based; details: Mus musculus, N2a, retinoic acid differentiation, GGTI-298, 24 hrs; for fold induction at 0.1 µM: 100 nM, signal in the absence of the compounds normalized as 1, read-out: HSP70 Western signal, Compound Dose 100 nM; for fold induction at 1 µM: signal in the absence of the compounds normalized as 1, read-out: HSP70 Western signal, Compound Dose 1 μM; for fold induction at 10 µM: signal in the absence of the compounds normalized as 1, read-out: HSP70 Western signal, Compound Dose 10 μM
Experimental: Mouse Neuro2A neuroblastoma cells were cultured in DMEM supplemented with 10% FBS for 24 hrs. The cells were treated with various concentrations of the indicated compounds. Then differentiation was induced by retinoic acid in DMEM supplemented with 2% FBS. An inhibitor against a G-protein, GGTI-298, was incubated. After 24 hrs incubation, cells were harvested, and lysates were prepared from the harvested cells. Western blotting analysis was done for the same protein amounts of these lysates, and western signals were detected by chemiluminescence and quantified in parallel with comparisons of those detected in the absence of the compound. Western signals in the absence of the compounds were normalized as 1.

HSP70 [2] = test: HSP70 protein in rat brain lysates by Western blotting after oral dosing; type: in vivo
Experimental: The compounds tabulated below or vehicle controls were orally dosed at 12 mg/kg to Sprague-Dawley rats. Rat brain tissues were extracted in various time points after the oral dosing. Lysates were prepared from the harvested brain tissues. Western blotting analysis was done for the same protein amounts of these lysates, and western signals of HSP70 were detected by chemiluminescence and quantified in parallel with comparisons of those detected at time 0 hr. Western signals at time 0 hr were normalized as 100.

SMILES: CCOC(=O)C(C/C=C(\C)CC/C=C(\C)CCC=C(C)C)C(C)=O (stereo not shown)
- Activity 1 μM (Neuro2A cells): 259* arbitrary units

SMILES: CCC(=O)CC/C=C(\C)CC/C=C(\C)CC/C=C(\C)CCC=C(C)C
- Activity 1 nm (Neuro2A cells): 186 arbitrary units

SMILES: CCOC(=O)C(C/C=C(\C)CC/C=C(\C)CC/C=C(\C)CCC=C(C)C)C(=O)C12CC3CC(CC(C3)C1)C2 (stereo not shown)
- Activity 1 nm (Neuro2A cells): 145 arbitrary units

SMILES: CCOC(=O)C(C/C=C(\C)CC/C=C(\C)CC/C=C(\C)CCC=C(C)C)C(=O)C(C)C (stereo not shown)
- Activity 1 nm (Neuro2A cells): 173 arbitrary units

SMILES: CCOC(=O)C(CC=C1CCCCC1)C(C)=O (stereo not shown)
- Activity 1 μM (Neuro2A cells): 162* arbitrary units

SMILES: CCOC(=O)/C=C(\C)CCC=C1CCCCC1
- Activity 1 μM (Neuro2A cells): 161* arbitrary units

SMILES: C/C(=C\CO)CCC=C1CCCCC1
- Activity compared with control experiment with no addition of compound (Neuro2A cells; in words, concentration not given): * Under the conditions tested, this compound was not found to have activity beyond that of the control for this assay.

SMILES: CCOC(=O)C=C1CCCCC1
- Activity 1 μM (Neuro2A cells): 240* arbitrary units

SMILES: CC(C)=CCC/C(C)=C/CC/C(C)=C/CC/C(C)=C/CC/C(C)=N/OCc1ccccc1
- Activity 1 μM (Neuro2A cells): 287 arbitrary units

SMILES: CCO/N=C(\C)CC/C=C(\C)CC/C=C(\C)CC/C=C(\C)CCC=C(C)C
- Mean of Hippocampus CA3 neurons damaged (Sprague-Dawley rats; Vehicle 17.59 in this table): 14.66 Arbitrary units

SMILES: CC(C)=CCC/C(C)=C/CC/C(C)=C/CC/C(C)=C/CC/C(C)=C/CCC(=O)C1CC1
- Mean of Hippocampus CA3 neurons damaged (Sprague-Dawley rats; Vehicle 6.59 in this table): 5.98 Arbitrary units

SMILES: CC(C)=CCC/C(C)=C/CC/C(C)=C/CC/C(C)=C/C=O
- Mean of Hippocampus CA3 neurons damaged (Sprague-Dawley rats; Vehicle 1.72 in this table): 1.58 Arbitrary units

SMILES: CC(C)=CCC/C(C)=C/CC/C(C)=C/CC/C(C)=C/CC/C(C)=N/OCC(=O)O
- Mean of Seizure behaviors scores (Sprague-Dawley rats; Vehicle 26.68 in this table): 13.37 Arbitrary units

SMILES: CC(C)=CCC/C(C)=C/CC/C(C)=C/CCC(C)OC(=O)NCC1CCCCC1 (stereo not shown)
- fold induction at 0.1 µM (HSP70 [1]): 1.55
- fold induction at 1 µM (HSP70 [1]): 1.49
- fold induction at 10 µM (HSP70 [1]): 2.53

SMILES: CCC(=O)CC/C=C(\CC)CC/C=C(\C)CC/C=C(\C)CCC=C(C)C
- fold induction at 0.1 µM (HSP70 [1]): 1.79
- fold induction at 1 µM (HSP70 [1]): 6.08
- fold induction at 10 µM (HSP70 [1]): 4.76

SMILES: CC(C)=CCC/C(C)=C/CC/C(C)=C/CC/C(C)=C/CC1CCCCC1=O (stereo not shown) [drawing 150]
- Mean of Hippocampus CA3 neurons damaged (Sprague-Dawley rats; Vehicle 15.61 in this table): 2.64 Arbitrary units

SMILES: CC(=O)CC/C=C(\C)CC/C=C(\C)CC/C=C(\C)CCC=C(C)C [drawing 151]
- Mean of Hippocampus CA3 neurons damaged (Sprague-Dawley rats; Vehicle 15.61 in this table): 9.46 Arbitrary units

SMILES: CC(C)=CCC/C(C)=C/CC/C(C)=C/CC/C(C)=C/CCC1(C)OCCO1 [drawing 152]
- Mean of Hippocampus CA3 neurons damaged (Sprague-Dawley rats; Vehicle 15.31 in this table): 12.11 Arbitrary units

SMILES: CCOC(=O)C(C/C=C(\C)CC/C=C(\C)CC/C=C(\C)CCC=C(C)C)C(C)=O (stereo not shown) [drawing 153]
- Mean of Hippocampus CA3 neurons damaged (Sprague-Dawley rats; Vehicle ~7.74 in this table): ~5.57 Arbitrary units

SMILES: CC(=O)CC/C=C(\C)CC/C=C(\C)CCC=C(C)C [drawing 154]
- Mean of Hippocampus CA3 neurons damaged (Sprague-Dawley rats; Vehicle 19.95 in this table): 10.61 Arbitrary units

SMILES: CC/C(=C\CCC(=O)C12CC3CC(CC(C3)C1)C2)CC/C=C(\C)CC/C=C(\C)CCC=C(C)C [drawing 155]
- Mean of Hippocampus CA3 neurons damaged (Sprague-Dawley rats; Vehicle 19.95 in this table): 12.54 Arbitrary units

SMILES: COC(=O)C(NC(=O)OC(C)CC/C=C(\C)CC/C=C(\C)CCC=C(C)C)C(C)C (stereo not shown) [drawing 156]
- Mean of Hippocampus CA3 neurons damaged (Sprague-Dawley rats; Vehicle 9.76 in this table): 6.61 Arbitrary units

SMILES: CC(=O)CC/C=C(\C)CC/C=C(\C)CC/C=C(\C)CC/C=C(\C)CCC=C(C)C [drawing 158]
- Mean of Hippocampus CA3 neurons damaged (Sprague-Dawley rats; Vehicle 12.71 in this table): 2.22 Arbitrary units

SMILES: CC(C)=CCC/C(C)=C/CC/C(C)=C/CC/C(C)=C/COC(=O)C1CCCCC1 [drawing 159]
- Mean of Hippocampus CA3 neurons damaged (Sprague-Dawley rats; Vehicle 6.59 in this table): 1.55 Arbitrary units

SMILES: CC(C)=CCC/C(C)=C/CC/C(C)=C/CC/C(C)=C/CCC(=O)C(C)(C)C [drawing 161]
- Mean of Hippocampus CA3 neurons damaged (Sprague-Dawley rats; Vehicle 12.91 in this table): 8.08 Arbitrary units

SMILES: CCCCCNC(=O)OC(C)CC/C=C(\C)CC/C=C(\C)CCC=C(C)C (stereo not shown) [drawing 162]
- Mean of Hippocampus CA3 neurons damaged (Sprague-Dawley rats; Vehicle 7.09 in this table): 14.73 Arbitrary units

SMILES: CC(C)=CCC/C(C)=C/CC/C(C)=C/CC/C(C)=C/CCC1(C)OCCO1 [drawing 165]
- Mean of Seizure behaviors scores (Sprague-Dawley rats; Vehicle 41.56 in this table): 16.35 Arbitrary units

SMILES: CC(C)=CCC/C(C)=C/CC/C(C)=C/CC/C(C)=C/CCC(=O)C(C)(C)C [drawing 166]
- Mean of Seizure behaviors scores (Sprague-Dawley rats; Vehicle 19.75 in this table): 11.25 Arbitrary units

SMILES: CC(C)=CCC/C(C)=C/CC/C(C)=C/CC/C(C)=C/COC(=O)C1CCCCC1 [drawing 167]
- Mean of Seizure behaviors scores (Sprague-Dawley rats; Vehicle 26.31 in this table): 18.68 Arbitrary units

SMILES: CCOC(=O)C(C/C=C(\C)CC/C=C(\C)CC/C=C(\C)CCC=C(C)C)C(C)=O (stereo not shown) [drawing 168]
- Mean of Seizure behaviors scores (Sprague-Dawley rats; Vehicle 13.37 in this table): 3.83 Arbitrary units

SMILES: CC(C)=CCC/C(C)=C/CC/C(C)=C/CC/C(C)=C/COC(=O)C1CCCCC1 [drawing 169]
- fold induction at 0.1 µM (HSP70 [1]): 2.53
- fold induction at 1 µM (HSP70 [1]): 2.34
- fold induction at 10 µM (HSP70 [1]): 2.53

SMILES: CCCCCNC(=O)OC(C)CC/C=C(\C)CC/C=C(\C)CCC=C(C)C (stereo not shown) [drawing 170]
- fold induction at 0.1 µM (HSP70 [1]): 1.16
- fold induction at 1 µM (HSP70 [1]): 1.26
- fold induction at 10 µM (HSP70 [1]): 1.93

SMILES: CC(=O)CC/C=C(\C)CC/C=C(\C)CC/C=C(\C)CC/C=C(\C)CCC=C(C)C [drawing 171]
- fold induction at 0.1 µM (HSP70 [1]): 1.92
- fold induction at 1 µM (HSP70 [1]): 2.78
- fold induction at 10 µM (HSP70 [1]): 3.53

SMILES: CC(C)=CCC/C(C)=C/CC/C(C)=C/CC/C(C)=C/CCC1(C)OCCO1 [drawing 172]
- fold induction at 0.1 µM (HSP70 [1]): 3.16
- fold induction at 1 µM (HSP70 [1]): 3.5
- fold induction at 10 µM (HSP70 [1]): 3.49

SMILES: CC(C)=CCC/C(C)=C/CC/C(C)=C/CC/C(C)=C/CC1CCCCC1=O (stereo not shown) [drawing 173]
- fold induction at 0.1 µM (HSP70 [1]): 3.85
- fold induction at 1 µM (HSP70 [1]): 3.78
- fold induction at 10 µM (HSP70 [1]): 2.25

SMILES: CC(=O)CC/C=C(\C)CC/C=C(\C)CCC=C(C)C [drawing 175]
- fold induction at 0.1 µM (HSP70 [1]): 1.87
- fold induction at 1 µM (HSP70 [1]): 5.86
- fold induction at 10 µM (HSP70 [1]): 1.79

SMILES: CC/C(=C\CCC(=O)C12CC3CC(CC(C3)C1)C2)CC/C=C(\C)CC/C=C(\C)CCC=C(C)C [drawing 177]
- fold induction at 0.1 µM (HSP70 [1]): 1.71
- fold induction at 1 µM (HSP70 [1]): 2
- fold induction at 10 µM (HSP70 [1]): 1

SMILES: CC(=O)CC/C=C(\C)CC/C=C(\C)CC/C=C(\C)CCC=C(C)C [drawing 178]
- fold induction at 0.1 µM (HSP70 [1]): 1.38
- fold induction at 1 µM (HSP70 [1]): 2.05
- fold induction at 10 µM (HSP70 [1]): 2.14

SMILES: COC(=O)C(NC(=O)OC(C)CC/C=C(\C)CC/C=C(\C)CCC=C(C)C)C(C)C (stereo not shown) [drawing 179]
- fold induction at 0.1 µM (HSP70 [1]): 1.26
- fold induction at 1 µM (HSP70 [1]): 1.07
- fold induction at 10 µM (HSP70 [1]): 1.29

SMILES: CC(C)=CCC/C(C)=C/CC/C(C)=C/CC/C(C)=C/CC1CCCCC1=O (stereo not shown) [drawing 180]
- Western signal of HSP70 in brain (HSP70 [2]; 12 hr after oral 12 mg/kg, time 0 hr = 100, Vehicle 102%): 116%
- Western signal of HSP70 in brain (HSP70 [2]; 48 hr after oral 12 mg/kg, time 0 hr = 100, Vehicle 105%): 114%
- Western signal of HSP70 in brain (HSP70 [2]; 96 hr after oral 12 mg/kg, time 0 hr = 100, Vehicle 99%): 97%
